In the supplement of paper PMC5579334:

Tests used:
HSC1 [1] = experiment: relative IC50 (inflection point of fitted dose-response curve, CellTox-Green cytotoxicity, 72 h; top asymptote may be below 50%); higher = less potent
Procedure, shortened: (§1)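 MPNST cell lines and primary human Schwann cells were incubated 72 h at 37 °C in 384-well plates holding five 10-fold compound dilutions. CellTox-Green was added before seeding at a final 1:1000 dilution and reported fluorescence from DNA released by disrupted cells. Signals were scaled to vehicle and positive-control wells, and cultures failing plate quality control were dropped. Drug sensitivity score and relative IC50 come from four-parameter logistic fits, with IC50 censored at the top concentration.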

HS-PSS [2] = experiment: as above
Procedure, shortened: as §1

STS26T [3] = experiment: as above
Procedure, shortened: as §1

ST8814 [4] = experiment: as above
Procedure, shortened: as §1

HS-Sch-2 = experiment: relative IC50 (inflection point of fitted dose-response curve, CellTiter-Glo viability, 72 h; top asymptote may be below 50% inhibition); higher = less potent
Procedure, shortened: (§2)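 MPNST cell lines and primary human Schwann cells (750–1000 cells per well) went into 384-well plates preprinted with each compound at five concentrations in 10-fold steps. Plates were incubated 72 h at 37 °C, 5% CO2. Viability was read as CellTiter-Glo ATP luminescence, scaled between vehicle and positive-control wells, with duplicates averaged where present. Percent inhibition is at the top concentration; drug sensitivity score and relative IC50 (censored at top concentration) come from four-parameter logistic fits.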

HSC1 [5] = experiment: as above
Procedure, shortened: as §2

HS-PSS [6] = experiment: as above
Procedure, shortened: as §2

S462 = experiment: as above
Procedure, shortened: as §2

STS26T [7] = experiment: as above
Procedure, shortened: as §2

HSC2 [8] = experiment: as above
Procedure, shortened: as §2

YST-1 = experiment: as above
Procedure, shortened: as §2

ST8814 [9] = experiment: as above
Procedure, shortened: as §2

S1507-2 = experiment: as above
Procedure, shortened: as §2

HSC2 [10] = experiment: relative IC50 (inflection point of fitted dose-response curve, CellTox-Green cytotoxicity, 72 h; top asymptote may be below 50%); higher = less potent
Procedure, shortened: as §1

Row | SMILES | relative IC50 (HSC1 [1]) [µM] | relative IC50 (HS-PSS [2]) [µM] | relative IC50 (STS26T [3]) [µM] | relative IC50 (ST8814 [4]) [µM] | relative IC50 (HS-Sch-2) [nM] | relative IC50 (HSC1 [5]) [nM] | relative IC50 (HS-PSS [6]) [nM] | relative IC50 (S462) [nM] | relative IC50 (STS26T [7]) [nM] | relative IC50 (HSC2 [8]) [nM] | relative IC50 (YST-1) [nM] | relative IC50 (ST8814 [9]) [nM] | relative IC50 (S1507-2) [nM] | relative IC50 (HSC2 [10]) [µM]
1 | CCn1c(-c2nonc2N)nc2cnc(Oc3cccc(NC(=O)c4ccc(OCCN5CCOCC5)cc4)c3)cc21 | 2.52 | > 10 | 0.322 | > 10 | 988 | 64 | 1610 | 1490 | 775 | 51.4 | 618 | 1930 | 1480 | 
2 | CN(c1ccccc1CNc1nc(Nc2ccc3c(c2)CC(=O)N3)ncc1C(F)(F)F)S(C)(=O)=O |  |  | 0.849 |  | 2440 | 209 | 2360 | 1010 | 1420 | 326 | 1240 | 1370 | 1250 | 
3 | COc1ncc(-c2ccc3nccc(-c4ccnnc4)c3c2)cc1NS(=O)(=O)c1ccc(F)cc1F | > 1 |  |  | 0.161 |  | 22.7 |  | 63.2 | 18.5 | 25.5 |  | 52.2 | 17.6 | > 1
4 | O=C(O)c1ccc(-c2c[nH]c3ncc(-c4ccccc4)cc23)cc1C1CCCC1 | > 10 | > 10 | > 10 | > 10 | 2980 | > 10000 |  | > 10000 | > 10000 |  | > 10000 | > 10000 | > 10000 | > 10
5 | Cn1cc(C[C@@H](N)C(=O)O)c2ccccc21 [1-methyl-D-tryptophan aq] | > 5 |  |  | > 5 |  | > 5000 |  | > 5000 | > 5000 | > 5000 |  | > 5000 | > 5000 | > 5
6 | Nc1ncnc2c1nc(Cl)n2[C@@H]1O[C@H](CO)[C@@H](O)[C@H]1O [8-chloro-adenosine] | > 50 | > 50 | 2.82 |  | 2960 | 3550 | 6590 | 1590 | 2800 | 3820 | 2580 | 1240 | 1890 | > 50
7 | CNC(=O)c1ccc(N2C(=S)N(c3cnc(C#N)c(C(F)(F)F)c3)C(=O)C23CCC3)cc1F [ARN 509] | > 10 | > 10 |  | > 10 |  | > 10000 |  | > 10000 | > 10000 | > 10000 |  | > 10000 | > 10000 | > 10
8 | CN(C)CCN1C(=O)c2cccc3cc(N)cc(c23)C1=O [Amonafide] | > 10 | 2.15 |  | 3.15 | 1700 | 1350 | 2410 | 1650 | 2240 | 1860 | 1020 | 1690 | 1360 | 
9 | Nc1ncn([C@@H]2O[C@H](CO)[C@@H](O)[C@H]2O)c(=O)n1 [Azacitidine] | > 10 | > 10 | > 10 | > 10 |  | 2340 |  | 2580 | 3840 | 3320 |  |  | > 10000 | > 10
10 | Nc1ccn([C@@H]2O[C@H](CO)[C@@H](O)[C@@H]2O)c(=O)n1 [Cytarabine] | 2.18 | 0.336 |  | 0.786 | 688 | 283 | 479 | 163 | 236 | 290 | 210 | 689 | 1520 | 1.96
11 | CC(=O)N(O)CCCCCNC(=O)CCC(=O)N(O)CCCCCNC(=O)CCC(=O)N(O)CCCCCN [Deferoxamine aq] | > 10 |  | > 10 | 3.04 |  | 1470 |  | 1630 | 1420 | 771 |  | 1300 | 931 | > 10
12 | COc1cccc2c1C(=O)c1c(O)c3c(c(O)c1C2=O)C[C@@](O)(C(=O)CO)C[C@@H]3O[C@H]1C[C@H](N)[C@H](O)[C@H](C)O1 [Doxorubicin] |  | 0.367 |  | > 1 | 133 | 83.2 | 199 | 71.2 | 81.2 | 109 | 54.9 | 130 | 72.5 | 0.346
13 | O=S(=O)(c1cccc2cnccc12)N1CCCNCC1 [Fasudil] | > 50 |  | 20.2 | > 50 | 16700 | 13000 | 19800 | 16100 | 17600 | 16600 | 16500 |  | 19700 | > 50
14 | CC(C)(C)NC(=O)[C@H]1CC[C@H]2[C@@H]3CC[C@H]4NC(=O)C=C[C@]4(C)[C@H]3CC[C@]12C [Finasteride] | > 10 | > 10 | > 10 | > 10 | > 10000 | > 10000 | > 10000 | > 10000 |  | > 10000 | > 10000 | > 10000 | > 10000 | > 10
15 | Cc1c(CN2CCN(C(=O)[C@H](C)O)CC2)sc2c(N3CCOCC3)nc(-c3cnc(N)nc3)nc12 [GDC-0980] | > 10 |  | > 10 | 2.88 |  | 636 |  | 617 | 486 | 469 |  | 1060 | 447 | > 10
16 | NC(=O)c1ccc(I)c([N+](=O)[O-])c1 [Iniparib] | > 10 | > 10 |  | > 10 | > 10000 | > 10000 | > 10000 | > 10000 | > 10000 | > 10000 | > 10000 | > 10000 | > 10000 | > 10

Row | SMILES | relative IC50 (HSC1 [1]) [µM] | relative IC50 (HS-PSS [2]) [µM] | relative IC50 (STS26T [3]) [µM] | relative IC50 (ST8814 [4]) [µM] | relative IC50 (HS-Sch-2) [nM] | relative IC50 (HSC1 [5]) [nM] | relative IC50 (HS-PSS [6]) [nM] | relative IC50 (S462) [nM] | relative IC50 (STS26T [7]) [nM] | relative IC50 (HSC2 [8]) [nM] | relative IC50 (YST-1) [nM] | relative IC50 (ST8814 [9]) [nM] | relative IC50 (S1507-2) [nM] | relative IC50 (HSC2 [10]) [µM]
17 | C[C@]12O[C@H](C[C@]1(O)CO)n1c3ccccc3c3c4c(c5c6ccccc6n2c5c31)CNC4=O [Lestaurtinib] |  | > 1 |  | 0.29 | 112 | 29.3 | 87.2 | 93.8 | 155 | 24.9 | 59.8 | 130 | 101 | 
18 | C[C@]1(O)C[C@@H](c2nc(-c3ccc4ccc(-c5ccccc5)nc4c3)c3c(N)nccn32)C1 [Linsitinib] | > 10 | > 10 | > 10 | > 10 | 770 | 3.91 | > 10000 | 101 |  | > 10000 | 567 | > 10000 | 20.7 | > 10
19 | NC(=O)c1cccc2cn(-c3ccc(C4CCCNC4)cc3)nc12 (configuration not stated) [MK-4827] | > 10 |  |  | 3.04 |  | 2110 |  | 1400 | 1700 |  |  | 1650 | 1680 | > 10
20 | Clc1ccc(C(c2ccccc2Cl)C(Cl)Cl)cc1 (configuration not stated) [Mitotane] | > 10 | > 10 | > 10 | > 10 | > 10000 | > 10000 | > 10000 | > 10000 | > 10000 | > 10000 | > 10000 |  | > 10000 | > 10
21 | N#CCNC(=O)c1ccc(-c2ccnc(Nc3ccc(N4CCOCC4)cc3)n2)cc1 [Momelotinib] | 3.37 | > 10 |  | > 10 | 1640 | 1410 | 2500 | 2740 | 3110 | 1330 | 1300 | 1970 | 3760 | 3.22
22 | CC1(C)CNc2cc(NC(=O)c3cccnc3NCc3ccncc3)ccc21 [Motesanib] | > 10 | > 10 | > 10 | > 10 | > 10000 | > 10000 | > 10000 | > 10000 | > 10000 |  |  | > 10000 | > 10000 | > 10
23 | c1cc(CN2CCCNCCNCCCNCC2)ccc1CN1CCCNCCNCCCNCC1 [Plerixafor aq] | > 10 |  |  | > 10 |  | > 10000 |  | > 10000 | > 10000 | > 10000 |  | > 10000 | > 10000 | 2.81
24 | Cn1cnc2c(F)c(Nc3ccc(Br)cc3Cl)c(C(=O)NOCCO)cc21 [Selumetinib] | > 10 | > 10 | > 10 |  | 2030 | 2600 |  | 736 | 240 | 1710 | > 10000 | 727 | 301 | > 10
25 | CN(N=O)C(=O)N[C@@H]1[C@@H](O)[C@H](O)[C@@H](CO)O[C@@H]1O [Streptozocin] | > 10 | > 10 | > 10 | > 10 |  | > 10000 |  | > 10000 | > 10000 | > 10000 |  |  | > 10000 | > 10
26 | Cn1c(=O)c(F)c(Nc2ccc(I)cc2F)c2c(=O)n(C[C@@H](O)CO)cnc21 [TAK-733] | > 1 | > 1 |  | 0.218 | 152 | 97.3 | 162 | 58.5 | 25.1 | 90.6 |  | 87.9 | 85 | > 1
27 | COc1cc(Nc2ncc(F)c(Nc3ccc4c(n3)NC(=O)C(C)(C)O4)n2)cc(OC)c1OC [Tamatinib] | > 10 | > 10 |  |  |  | 665 | > 10000 | > 10000 |  | 1590 | > 10000 |  | > 10000 | 
28 | Nc1nc2[nH]cnc2c(=S)[nH]1 [Thioguanine] | > 10 | > 10 | 2.92 |  | 1120 |  | 1450 | 1200 | 717 | > 10000 | 1370 | 642 | 2270 | > 10
29 | COc1cc2nccc(Oc3ccc(NC(=O)Nc4cc(C)on4)c(Cl)c3)c2cc1OC [Tivozanib] |  | > 10 | 1.89 | 1.9 | 3870 | 1710 | 3730 | 828 | 1870 | 1790 | 2260 | > 10000 | 18.9 | > 10
30 | CN1CCc2c(c3ccccc3n2Cc2ccc(C(=O)NO)cc2)C1 [Tubastatin A] | > 10 | > 10 | 2.76 | > 10 | 3370 | 3180 | 3010 | 3270 | 2840 |  | 1600 | 3470 | 2430 | > 10
31 | Oc1nc(-c2ccc(C(F)(F)F)cc2)nc2c1CSCC2 [XAV-939] | > 10 | > 10 |  | > 10 | > 10000 | 286 |  | > 10000 |  | 314 |  | > 10000 | 1580 | > 10
32 | FC(F)c1nc2ccccc2n1-c1nc(N2CCOCC2)nc(N2CCOCC2)n1 [ZSTK474] | > 10 | > 10 |  | > 10 | 1050 | 876 | 831 | 582 | 244 | 692 | 248 | 658 | 251 | 
